Read-outs that look alike come from different tables or passages of the source.
Target: HIV-1 integrase (Human immunodeficiency virus type 1 group M subtype B, UniProt P04585)
Experiment: HIV-1 integrase inhibition assay (radiolabeled duplex substrate corresponding to the U5 end of the HIV LTR)
Assay type: biochemical
Description: For the purpose of Table 1 to 4, the HIV-1 integrase inhibition assay was carried out following a known procedure (Burke, Jr. T. R. et al., J. Med. Chem. 38, 4171-4178 (1995)). A suitable radiolabeled duplex substrate corresponding to the U5 end of the HIV LTR was used.
For the purposes of Table 1 to 4 the HIV-1 integrase inhibition assay was based on a known procedure (Hazuda, D. J. et al., Nucleic Acids Res. 22 1121-1122 (1994)).

[1] = Table 4, compounds of formula I′, read-out: IC50

SMILES: COc1ccc(OC)c(NC(=O)[C@H](CCC(N)=O)NC(=O)c2ccc[nH]2)c1 [Example 91, N-(Nα-(Pyrrole-2-carbonyl)-L-glutaminyl]-2,5dimethoxyaniline]
- IC50: > 10 µM

SMILES: CC(C)(C)OC[C@H](NC(=O)c1cccn1Cc1ccc(F)cc1)C(=O)NCCc1ccc(O)c(O)c1 [Example 93, N-[Nα-(N′-(4-Fluorobenzyl)pyrrole-2-carbonyl)-O-tert-butyl-L-seryl]dopamine]
- IC50 [1]: > 10 µM

SMILES: O=C(O)CC[C@H](NC(=O)c1cc2ccccc2n1Cc1ccc(F)cc1)C(=O)NCc1ccccc1 [Example 94, N-[Nα-(N′-(4-Fluorobenzyl)indole-2-carbonyl)-L-glutamyl]benzylamine]
- IC50: 9.25 µM

SMILES: CC(C)(C)OC[C@H](NC(=O)c1cc2ccccc2n1Cc1ccc(F)cc1)C(=O)NCCc1ccc(O)c(O)c1 [Example 95, N-[Nα-(N′-(4-Fluorobenzyl)indole-2-carbonyl)-O-tert-butyl-L-seryl]dopamine]
- IC50: 7 µM

SMILES: O=C(N[C@@H](CO)C(=O)NCCc1ccc(O)c(O)c1)c1cc2ccccc2n1Cc1ccc(F)cc1 [Example 96, N-[Nα-(N′-(4-Fluorobenzyl)indole-2-carbonyl)-L-seryl]dopamine]
- IC50: > 10 µM

SMILES: CC(C)(C)OC[C@H](NC(=O)c1ccc(OCc2ccc(F)cc2)c(OCc2ccc(F)cc2)c1)C(=O)NCCc1ccc(O)c(O)c1 [Example 97, N-[Nα-(3,4-di-(4-Fluorobenzyloxy)benzoyl)-O-tert-butyl-L-seryl]dopamine]
- IC50: 2.9 µM

SMILES: O=C(C=Cc1ccc(OCc2ccc(F)cc2)c(OCc2ccc(F)cc2)c1)NCC(=O)NCCc1cccs1 [Example 98, N-[Nα-(3,4-di-(4-Fluorobenzyloxy)caffeoyl)-glycyl]-2-(2′-thiophenyl)ethylamine]
- IC50 [1]: > 10 µM

SMILES: CC(C)(C)OC(=O)CC[C@H](NC(=O)c1ccc(OCc2ccc(F)cc2)c(OCc2ccc(F)cc2)c1)C(=O)NCc1ccccc1 [Example 99, N-[Nα-(3,4-di-(4-Fluorobenzyloxy)benzoyl)-Oδ-tert-butyl-L-glutamyl]benzylamine]
- IC50: > 10 µM

SMILES: O=C(C=Cc1ccc(OCc2ccc(F)cc2)c(OCc2ccc(F)cc2)c1)NCC(=O)NCCc1ccc(O)c(O)c1 [Example 100, N-[Nα-(3,4-di-(4-Fluorobenzyloxy)caffeoyl)-L-glycyl)dopamine]
- IC50 [1]: 2.6 µM

SMILES: CC(C)(C)OC(=O)CC[C@H](NC(=O)c1cccn1Cc1ccc(F)cc1)C(=O)NCCc1cccs1 [Example 101, N-[Nα-(N′-(4-Fluorobenzyl)pyrrole-2-carbonyl)-Oδ-tert-butyl-L-glutamyl]-2-(2′-thiophenyl)ethylamine]
- IC50: > 10 µM

SMILES: CC(C)(C)OC(=O)CC[C@H](NC(=O)c1cc2ccccc2n1Cc1ccc(F)cc1)C(=O)NCCc1cccs1 [Example 102, N-[Nα-(N′-(4-Fluorobenzyl)indole-2-carbonyl)-Oδ-tert-butyl-L-glutamyl]-2-(2′-thiophenyl)ethylamine]
- IC50: > 10 µM

SMILES: O=C(O)CC[C@H](NC(=O)c1cccn1Cc1ccc(F)cc1)C(=O)NCCc1cccs1 [Example 103, N-[Nα-(N′-(4-Fluorobenzyl)pyrrole-2-carbonyl)-L-glutamyl]-2-(2′-thiophenyl)ethylamine]
- IC50: > 10 µM

SMILES: O=C(O)CC[C@H](NC(=O)c1cc2ccccc2n1Cc1ccc(F)cc1)C(=O)NCCc1cccs1 [Example 104, N-[Nα-(N′-(4-Fluorobenzyl)indole-2-carbonyl)-L-glutamyl]-2-(2′-thiophenyl)ethylamine]
- IC50: > 10 µM

SMILES: CC(C)(C)OC(=O)CC[C@H](NC(=O)c1cc(O)c2cccc(O)c2n1)C(=O)NCCc1cccs1 [Example 105, N-[Nα-(4,8-Dihydroxyquinoline-2-carbonyl)-Oδ-tert-butyl-L-glutamyl]-2-(2′-thiophenyl)ethylamine]
- IC50: > 10 µM

SMILES: O=C(O)CC[C@H](NC(=O)c1cc(O)c2cccc(O)c2n1)C(=O)NCCc1cccs1 [Example 106, N-[Nα-(4,8-Dihydroxyquinoline-2-carbonyl)-L-glutamyl]-2-(2′-thiophenyl)ethylamine]
- IC50: > 10 µM

Reference: patent publication US6528655B1, “Aromatic derivatives with HIV integrase inhibitory properties” (Pharmacor, Inc., priority 2000, dated 2003)
